Source: patent US20100055169A1, “CATIONIC LIPIDS AND USES THEREOF” (ABBOTT LABORATORIES, priority 2008, published 2010)

Assays:
Type in all cases: physicochemical
[1] = RiboGreen assay of siRNA encapsulation efficiency, in vitro formulations of Lipid-Based Particles; conditions: in vitro formulation b: Cationic lipid/PEG-cholesterol/DSPC/Chol 45/10/15/30 wt %, lipid:siRNA 25:1
Method: The mixing solution of cationic lipids, cholesterol, non-cationic lipids and PEG-lipids was prepared in ethanol (total concentration at 10 mg/mL). siSTABLE (purchased from ThermoFisher) (sense-5′ GGGGAAAGCUGGCAAGAUUUU-3′SEQ ID NO. 1, antisense-5′-AAUCUUGCCAGCUUUCCCCUU-3′ SEQ ID NO: 2) % stock solution was prepared in 10 mg/mL of solution by dissolving 10 mg siRNA in 1 mL of RNAse-free UltraPure Water. The calculated amount of siRNA solution was added to 1 mL of citrate buffer (pH 4.0, 20 mM), to provide an siRNA concentration of 0.2 mg/mL, and warmed to 60 C. The calculated amount of lipid solution was warmed to 60 C, transferred to a 0.5 mL syringe with 28½ gauge needle, and injected into the citrate buffer with stirring at 60 C. After 3 minutes, 3 mL of PBS solution at room temperature (pH 7.4) was added into the lipid mixture with stirring. The Lipid-Based Particle solution was cooled to room temperature.
The siRNA concentrations were measured using Quanti-iT RiboGreen RNA reagent (Molecular Probes, (R11490)). Vesicle sizes were characterized by dynamic light scattering with a DynaPro™ Plate Reader (Wyatt Technology) in 96-well half-area UV plate (Coring) after diluting the formulation sample (20 μL) in phosphate buffered saline (80 μL) at a pH of about 7-8. A 1% agarose gel-based assay was used for analyzing nuclease degradation and protection. Encapsulation efficiency (EE) was calculated using data obtained from a RiboGreen assay.
(§1) RNA concentration and encapsulation efficiency were determined using a Quant-iT® Ribogreen RNA reagent and kit available from Invitrogen. The siRNA was released from the Lipid-Based Particle using one of the following reagents: ethanol, Triton X-100, or phenol/chloroform. The siRNA concentration is quantified using fluorescent reading at 480 nm/520 nm.

[2] = RiboGreen assay of siRNA encapsulation efficiency, in vivo formulations of Lipid-Based Particles; conditions: in vivo formulation A: Cationic lipid/Example 73/DSPC/Chol 45/10/15/30 wt %, lipid:siRNA 25:1
Method: as §1
The lipid solution was prepared (10 mg/ml) by dissolving the lipid in 200 proof ethanol. The lipid mixture solution is prepared according to the above composition in Table 5.
An siRNA (TetR_ODC—12, G.G.G.G.A.A.A.G.C.U.G.G.C.A.A.G.A.U.U.U.U SEQ ID NO: 1) (ThermoFisher) solution is prepared in a concentration of 10 mg/ml by dissolving 10 mg siRNA in 1 ml of DNAse/RNAse-free distilled water.
(§2) A round bottom flask was submerged into a 65° C. water bath. Citrate buffer (37.5 ml) of pH 4.0 was pipetted into the flask. The solution was stirred by a magnetic stirring bar at a speed of 900 rpm. Both the pH 4.0 citrate buffer and the lipid solution were pre-warmed in the 65° C. water bath for about 3 minutes. A siRNA solution (0.5 ml) was pipetted into the pH 4.0 citrate buffer. The 12.5 ml lipid mixture solution was injected through a 27 gauge needle into the citrate buffer in about 30 seconds. The needle tip was inserted into the solution during the injection. The resulting solution was stirred for 5 minutes at a speed of 900 rpm. The flask was pulled up from the water bath and a 50 ml pH 7.4 PBS buffer was added into the flask. The final solution was further mixed at a speed of 900 rpm for 5 minutes. For the diafiltration process, a dialysis filter (Millipore, 100K, Cat#PXB100C50) was used to remove ethanol in the above solution. When the volume was reduced to 20 ml during the initial diafiltration, 20 ml of pH 7.4 PBS was added to the sample solution. The diafiltration was continued until the volume was reduced to 20 ml. The diafiltration process was repeated 4 times. The volume of the sample solution was reduced to about 12 ml and pH 7.4 PBS was added to make the final volume of 15 ml. The 15 ml solution was filtered sequentially through the 0.45 and 0.22 μm sterile PVDF membrane filters (Millipore) and immediately transferred into a sterile vial.

[3] = Particle sizing assay (Zetasizer Nano ZS), in vivo formulations; conditions: in vivo formulation A: Cationic lipid/Example 73/DSPC/Chol 45/10/15/30 wt %, lipid:siRNA 25:1
Method: as §2
For measurements of particle sizes and size distributions (PDI), lipid-based particles were prepared as described above. The particle solution (60 μL) was pipetted into a disposable cuvette (UVette, Eppendorf, cat#952010051) and measured in the “General Purpose” mode. Attenuator and position were optimized by the device. Measurements were performed using a Zetasizer Nano ZS (Malvern Instruments) equipped with a 4 mW He—Ne laser at a wavelength of 633 nm at 25° C. Scattered light was detected at a 173° backward scattering angle. The viscosity and refractive index of water at 25° C. was used for data analysis with the Dispersion Technology Software 5.00 (Malvern Instruments).

Molecule	% Encapsulation Efficiency [1]	further results
1-[3,4-bis(hexadecyloxy)butyl]pyrrolidine [Example 38]	99%	
CCCCC/C=C\C/C=C\CCCCCCCCOCC(CCN1CCOCC1)OCCCCCCCC/C=C\C/C=C\CCCCC (stereo not drawn) [Example 2, 4-{3,4-bis[(9Z,12Z)-octadeca-9,12-dienyloxy]butyl}morpholine]		% Encapsulation Efficiency [2]: 83.6%; Size [3]: 89 nm; Size distribution (PDI) [3]: (0.1)
CCCCC/C=C\C/C=C\CCCCCCCCOCC(CCOCCN(CC)CC)OCCCCCCCC/C=C\C/C=C\CCCCC (stereo not drawn) [Example 25, N-(2-{3,4-bis[(9Z,12Z)-octadeca-9,12-dienyloxy]butoxy}ethyl)-N,N-diethylamine]	96.1%	
CCCCC/C=C\C/C=C\CCCCCCCCOCC(CCOCCC1CCCN1C)OCCCCCCCC/C=C\C/C=C\CCCCC (stereo not drawn) [Example 26, 2-(2-{3,4-bis[(9Z,12Z)-octadeca-9,12-dienyloxy]butoxy}ethyl)-1-methylpyrrolidine]	99.9%	
CCCCC/C=C\C/C=C\CCCCCCCCOCC(CCOCCN1CC1)OCCCCCCCC/C=C\C/C=C\CCCCC (stereo not drawn) [Example 27, 1-(2-{3,4-bis[(9Z,12Z)-octadeca-9,12-dienyloxy]butoxy}ethyl)aziridine]	97%	
CCCCC/C=C\C/C=C\CCCCCCCCOCC(CCOCCN(C)C)OCCCCCCCC/C=C\C/C=C\CCCCC (stereo not drawn) [Example 29, N-(2-{3,4-bis[(9Z,12Z)-octadeca-9,12-dienyloxy]butoxy}ethyl)-N,N-dimethylamine]	96.4%	
CCCCC/C=C\C/C=C\CCCCCCCCC1(CCCCCCC/C=C\C/C=C\CCCCC)OCC(CCN(CC)CC)O1 (stereo not drawn) [Example 32, N,N-diethyl-N-(2-{2-[(8Z,11Z)-heptadeca-8,11-dienyl]-2-[(9Z,12Z)-octadeca-9,12-dienyl]-1,3-dioxolan-4-yl}ethyl)amine]	98.6%	
CCCCCCCC/C=C\CCCCCCCC(=O)OCC(CCN1CCCC1)OC(=O)CCCCCCC/C=C\CCCCCCCC (stereo not drawn) [Example 33, 1-{[(9Z)-octadec-9-enoyloxy]methyl}-3-pyrrolidin-1-ylpropyl (9Z)-octadec-9-enoate]	99%	
CCCCCCCC/C=C\CCCCCCCCOCC(CCN1CCCC1)OCCCCCCCC/C=C\CCCCCCCC (stereo not drawn) [Example 34, 1-{3,4-bis[(9Z)-octadec-9-enyloxy]butyl}pyrrolidine]	99%	
CCCCC/C=C\C/C=C\C/C=C\C/C=C\CCCC(=O)OCC(CCN1CCCC1)OC(=O)CCC/C=C\C/C=C\C/C=C\C/C=C\CCCCC (stereo not drawn) [Example 35, 1-{[(5Z,8Z,11Z,14Z)-icosa-5,8,11,14-tetraenoyloxy]methyl}-3-pyrrolidin-1-ylpropyl(5Z,8Z,11Z,14Z)-icosa-5,8,11,14-tetraenoate]	83.5%	
CCCCC/C=C\C/C=C\CCCCCCCCOC[C@H](CCOC(=O)NCCCN1CCCC1)OCCCCCCCC/C=C\C/C=C\CCCCC [Example 36, (3S)-3,4-bis[(9Z,12Z)-octadeca-9,12-dienyloxy]butyl 3-pyrrolidin-1-ylpropylcarbamate]	99%	
CCCCCCCCCCCCCCCCCCOCC(CCN1CCCC1)OCCCCCCCCCCCCCCCCCC (stereo not drawn) [Example 37, 1-[3,4-bis(octadecyloxy)butyl]pyrrolidine]	98.5%	
CCCCCC/C=C/CCCCCCCCOCC(CCN1CCCC1)OCCCCCCCC/C=C/CCCCCC (stereo not drawn) [Example 39, 1-{3,4-bis[(9E)-hexadec-9-enyloxy]butyl}pyrrolidine]	99%	
CCCCCCCC/C=C/CCCCCCCCOCC(CCN1CCCC1)OCCCCCCCC/C=C/CCCCCCCC (stereo not drawn) [Example 40, 1-{3,4-bis[(9E)-octadec-9-enyloxy]butyl}pyrrolidine]	97%	
CCCCC/C=C/C/C=C/CCCCCCCCOCC(CCN1CCCC1)OCCCCCCCC/C=C/C/C=C/CCCCC (stereo not drawn) [Example 41, 1-{3,4-bis[(9E,12E)-octadeca-9,12-dienyloxy]butyl}pyrrolidine]	99%	
CC/C=C\C/C=C\C/C=C\CCCCCCCCOCC(CCN1CCCC1)OCCCCCCCC/C=C\C/C=C\C/C=C\CC (stereo not drawn) [Example 42, 1-{3,4-bis[(9Z,12Z,15Z)-octadeca-9,12,15-trienyloxy]butyl}pyrrolidine]	98%	
CCCCC/C=C\C/C=C\CCCCCCCCOC[C@H](CCNC(=O)CCN(CC)CC)OCCCCCCCC/C=C\C/C=C\CCCCC [Example 43, N^1-{(3S)-3,4-bis[(9Z,12Z)-octadeca-9,12-dienyloxy]butyl}-N^3,N^3-diethyl-beta-alaninamide]	96.5%	
CCCCC/C=C\C/C=C\CCCCCCCCOCC(CCNCCCn1ccnc1)OCCCCCCCC/C=C\C/C=C\CCCCC (stereo not drawn) [Example 44, N-{3,4-bis[(9Z,12Z)-octadeca-9,12-dienyloxy]butyl}-N-[3-(1H-imidazol-1-yl)propyl]amine]	98%	
CCCCC/C=C\C/C=C\CCCCCCCCOCC(CCN(C)CCCN(C)C)OCCCCCCCC/C=C\C/C=C\CCCCC (stereo not drawn) [Example 45, N-{3,4-bis[(9Z,12Z)-octadeca-9,12-dienyloxy]butyl}-N,N′,N′-trimethylpropane-1,3-diamine]	99%	
CCCCC/C=C\C/C=C\CCCCCCCCOCC(CCN1CCC(n2ccnc2)C1)OCCCCCCCC/C=C\C/C=C\CCCCC (stereo not drawn) [Example 46, 1-(1-{3,4-bis[(9Z,12Z)-octadeca-9,12-dienyloxy]butyl}pyrrolidin-3-yl)-1H-imidazole]	98%	
CCCCC/C=C\C/C=C\CCCCCCCCOCC(CCNCCCN1CCCC1)OCCCCCCCC/C=C\C/C=C\CCCCC (stereo not drawn) [Example 47, N-{3,4-bis[(9Z,12Z)-octadeca-9,12-dienyloxy]butyl}-N-(3-pyrrolidin-1-ylpropyl)amine]	99%	
CCCCC/C=C\C/C=C\CCCCCCCCOCC(CCNCCCN(C)C)OCCCCCCCC/C=C\C/C=C\CCCCC (stereo not drawn) [Example 48, N-{3,4-bis[(9Z,12Z)-octadeca-9,12-dienyloxy]butyl}-N′,N′-dimethylpropane-1,3-diamine]	99%	
CCCCC/C=C\C/C=C\CCCCCCCCOCC(CCN1CCC1)OCCCCCCCC/C=C\C/C=C\CCCCC (stereo not drawn) [Example 49, 1-{3,4-bis[(9Z,12Z)-octadeca-9,12-dienyloxy]butyl}azetidine]	99%	
CCCCC/C=C\C/C=C\CCCCCCCCOCC(CCN1CCCC1C)OCCCCCCCC/C=C\C/C=C\CCCCC (stereo not drawn) [Example 50, 1-{3,4-bis[(9Z,12Z)-octadeca-9,12-dienyloxy]butyl}-2-methylpyrrolidine]	99%	
CCCCC/C=C\C/C=C\CCCCCCCCOCC(CCN1C(C)CCC1C)OCCCCCCCC/C=C\C/C=C\CCCCC (stereo not drawn) [Example 51, 1-{3,4-bis[(9Z,12Z)-octadeca-9,12-dienyloxy]butyl}-2,5-dimethylpyrrolidine]	99%	
